Source: patent publication US10738041B2, “Ferroportin inhibitors” (Vifor (International) AG, priority 2015, dated 2020)
Where two headings read alike, the source gives them in different places.

Legend:
ferroportin (Fpn) = target: T1, ferroportin (Fpn) (Mus musculus, UniProt Q9JHI9); experiment: Hepcidin Internalization Assay (J774); assay type: cell-based
T1 construct: host or cells: J774 mouse macrophage cell line, Fe(III)-NTA induced
T1 sequence (Q9JHI9 1-570): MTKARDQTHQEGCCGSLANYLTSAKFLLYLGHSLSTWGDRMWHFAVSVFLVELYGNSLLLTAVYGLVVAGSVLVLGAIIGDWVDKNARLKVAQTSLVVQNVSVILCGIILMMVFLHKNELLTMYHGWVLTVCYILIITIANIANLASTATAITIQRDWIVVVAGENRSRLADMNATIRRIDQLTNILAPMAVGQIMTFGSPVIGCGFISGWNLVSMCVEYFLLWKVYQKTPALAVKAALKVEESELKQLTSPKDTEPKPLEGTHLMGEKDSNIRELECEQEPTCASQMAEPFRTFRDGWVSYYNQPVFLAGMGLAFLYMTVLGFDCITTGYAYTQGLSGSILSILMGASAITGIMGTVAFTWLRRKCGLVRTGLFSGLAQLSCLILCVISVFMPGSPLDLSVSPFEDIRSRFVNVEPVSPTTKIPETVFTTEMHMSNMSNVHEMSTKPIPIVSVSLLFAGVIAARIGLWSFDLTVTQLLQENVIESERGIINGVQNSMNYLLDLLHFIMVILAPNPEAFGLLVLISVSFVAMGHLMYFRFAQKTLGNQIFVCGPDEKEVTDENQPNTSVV
Method in brief: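 Inhibition of fluorescent TMR-hepcidin uptake via ferroportin was imaged in fixed J774 cells after a 2 h, 37 °C co-incubation with compound dilutions; cells were pre-cultured overnight with 200 μM Fe(III)NTA. Internalized TMR signal per cell (Sum(Mean)) was fitted as log(inhibitor) vs. response for IC50, in triplicate.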

naïve WT C57BL/6 mice = experiment: Hypoferremia in naïve mice; assay type: in vivo, mouse; settings: for inhibition in vivo at 10 mg/kg / inhibition in vivo at 30 mg/kg / inhibition in vivo at 100 mg/kg: Mus musculus, po, 3 h, naïve WT C57BL/6 mice, relative to vehicle, read-out: Serum Iron Reduction at 3 h (%); for inhibition in vivo at 10 mg/kg: Dose 10 mg/kg p.o.; for inhibition in vivo at 30 mg/kg: Dose 30 mg/kg p.o.; for inhibition in vivo at 100 mg/kg: Dose 100 mg/kg p.o.
Procedure: Female C57BL/6 mice (Janvier, France) at age of 9 weeks were fed a standard diet (Harlan Provimi Kliba 3436) and treated per os (p.o.) with compounds or the corresponding amount of vehicle at a volume of 10 ml/kg body weight. Fpn inhibitors were formulated in 0.5% methylcellulose/water or 20% cremophor EL/water and dosed p.o. in mice at 10, 30 or 100 mg/kg body weight. Three hours later, mice were pre terminally anesthetized in isoflurane chambers and blood was collected by retro-orbital bleeding. Mice were sacrificed by cervical dislocation and spleens, livers and duodena were harvested and used for biomarker analysis. All experiments have been conducted in compliance with the license approved by the responsible veterinarian authorities. Serum was isolated by centrifugation of blood into gel-containing microtainers and serum iron was determined by the MULTIGENT Iron assay (Abbott Diagnostics, 6K95). Eight mice per group were used and one-way ANOVA with Bonferroni's multiple comparison test was performed to analyze the statistical differences between the experimental groups.

[1] = average of multiple measurements, inhibition of TMR-hepcidin (25 nM) internalization into J774 cells, read-out: J774 IC50
[2] = injection of synthetic hepcidin in WT naïve mice (Rivera, 2005; FIG. 3A)

SMILES	IC50 (ferroportin (Fpn); [1])	inhibition in vivo at 10 mg/kg (naïve WT C57BL/6 mice)	inhibition in vivo at 30 mg/kg (naïve WT C57BL/6 mice)	inhibition in vivo at 100 mg/kg (naïve WT C57BL/6 mice)	also measured
O=C(NCc1ncccc1F)c1csc(CCN(CCc2nc3ccccc3[nH]2)CCc2nc3ccccc3[nH]2)n1 [Example 152]	4 nM	–	–	–	–
O=C(NCc1ncccc1F)c1coc(C2CN(CCc3nc4ccccc4[nH]3)C2)n1 [Example 208]	12 nM	50%	65%	73%	–
O=C(NCc1ncccc1F)c1coc(CCNCCc2nc3c(Cl)cccc3[nH]2)n1 [Example 226]	49 nM	–	–	–	–
Cc1oc(CCNCCc2nc3ccccc3[nH]2)nc1C(=O)NCc1ncccc1F [Example 230]	140 nM	–	–	–	–
O=C(NCc1cccnn1)c1nc(CCNCc2nc3ccccc3[nH]2)sc1Cl [Example 161]	361 nM	–	–	–	–
O=C(NCc1ncccc1F)c1coc(CCNCCc2nc3c(F)cccc3[nH]2)n1 [Example 228]	46 nM	13%	26%	55%	–
O=C(NCc1cccnn1)c1csc(CCNCCc2nc3ccccc3[nH]2)n1 [Example 122]	26 nM	–	–	–	–
O=C(NC1CCc2cccnc21)c1csc(CCNCCc2nc3ccccc3[nH]2)n1 (centres unmarked) [Example 158]	47 nM	–	–	–	–
Cc1cnccc1CNC(=O)c1csc(CCNCc2nc3ccccc3[nH]2)n1 [Example 90]	25 nM	0%	0%	40%	–
O=C(NCc1ncccc1Cl)c1cnn(CCNCCc2nc3ccccc3[nH]2)c1 [Example 144]	12 nM	–	–	–	–
O=C(NCc1ncccc1F)c1csc(CCNCCc2nc3cc(F)ccc3[nH]2)n1 [Example 120]	34 nM	–	–	–	–
O=C(NCc1ncccc1F)c1csc(CCNCCc2nc3c(F)cccc3[nH]2)n1 [Example 243]	32 nM	–	–	–	–
O=C(NCc1ncccc1F)c1nc(CCNCc2nc3ccccc3[nH]2)sc1Cl [Example 151]	111 nM	–	–	–	–
O=C(NCc1ncc(F)cc1F)c1csc(CCNCCc2nc3ccccc3[nH]2)n1 [Example 116]	1000 nM	–	–	–	–
O=C(NCc1ncccc1F)c1ncn(CCNCc2nc3ccccc3[nH]2)n1 [Example 169]	750 nM	–	–	–	–
O=C(NCc1ncccc1F)c1nc(CCNCCc2nc3ccccc3[nH]2)sc1Cl [Example 154]	8.3 nM	13%	35%	56%	–
O=C(NCc1ncccc1F)c1coc(CCNCCc2nc3ccccc3[nH]2)n1 [Example 127]	9 nM	17%	47%	54%	–
O=C(NC1CCc2cccnc21)c1csc(CCNCc2nc3ccccc3[nH]2)n1 (centres unmarked) [Example 39]	70 nM	10%	20%	35%	–

SMILES	IC50 (ferroportin (Fpn); [1])	inhibition in vivo at 10 mg/kg (naïve WT C57BL/6 mice)	inhibition in vivo at 30 mg/kg (naïve WT C57BL/6 mice)	inhibition in vivo at 100 mg/kg (naïve WT C57BL/6 mice)	also measured
O=C(NCc1ncccc1Cl)c1coc(CCNCc2nc3ccccc3[nH]2)n1 [Example 141]	167 nM	–	–	–	–
O=C(NCc1ncccc1F)c1csc(CNCCc2nc3ccccc3[nH]2)n1 [Example 118]	103 nM	8%	24%	49%	–
O=C(NCc1ncccc1F)c1cnn(CCNCCc2nc3ccccc3[nH]2)c1 [Example 111]	35 nM	–	–	–	–
O=C(NCc1ncccc1F)c1cncc(C2CN(CCc3nc4ccccc4[nH]3)C2)c1 [compound 237]	81 nM	0%	15%	27%	–
O=C(NCc1ncccc1F)c1coc(CCNCCc2nc3cc(F)ccc3[nH]2)n1 [Example 250]	14 nM	5%	18%	40%	–
O=C(NCc1ccccn1)c1coc(CCNCc2nc3ccccc3[nH]2)n1 [Example 137]	514 nM	-2%	14%	25%	–
O=C(NCc1ncccc1F)c1coc(C2CN(CCc3nc4c(F)cccc4[nH]3)C2)n1 [Example 239]	36 nM	12%	20%	51%	–
O=C(NCc1ncccc1F)c1csc(CCNCCc2nc3ccccc3[nH]2)n1 [Example 94]	12 nM	30%	50%	80%	–
O=C(NCc1ncccc1Cl)c1csc(CCNCc2nc3ccccc3[nH]2)n1 [Example 82]	6 nM	–	–	–	–
CC[C@H](C)[C@@H]1NC(=O)[C@@H](NC(=O)[C@@H](NC(=O)[C@@H]2CCCN2C(=O)[C@H](Cc2ccccc2)NC(=O)[C@H](Cc2c[nH]cn2)NC(=O)[C@@H](NC(=O)[C@@H](N)CC(=O)O)[C@@H](C)O)[C@@H](C)CC)CSSC[C@@H](C(=O)N[C@@H](CCCCN)C(=O)N[C@H](C(=O)O)[C@@H](C)O)NC(=O)[C@@H]2CSSC[C@@H]3NC(=O)[C@@H]4CSSC[C@H](NC(=O)[C@H](Cc5ccccc5)NC1=O)C(=O)N[C@@H](CSSC[C@H](NC(=O)[C@H](CCCCN)NC(=O)[C@H](CO)NC(=O)[C@H](CCCNC(=N)N)NC(=O)[C@H](Cc1c[nH]cn1)NC3=O)C(=O)NCC(=O)N[C@@H](CCSC)C(=O)N2)C(=O)NCC(=O)N4 [hepcidin, reference compound]	–	–	–	–	IC50 (ferroportin (Fpn); IC50 of unlabeled hepcidin in the hepcidin internalization assay, J774 cells, TMR-hepcidin 25 nM): 15 ± 11 nM; reduction of serum iron levels from the vehicle control (naïve WT C57BL/6 mice; [2]): 40-50%; time of maximal effect on serum iron post treatment (naïve WT C57BL/6 mice; [2]): 3 to 4 h
O=C(NCc1ncccc1F)c1csc(CCCNCc2nc3ccccc3[nH]2)n1 [Example 134]	377 nM	–	–	–	–
O=C(NCc1ncccc1F)c1coc(CCNCc2nc3ccccc3[nH]2)n1 [Example 126]	96 nM	7%	23%	62%	–
O=C(NCc1ncccc1Cl)c1cnn(CCNCc2nc3ccccc3[nH]2)c1 [Example 138]	179 nM	–	–	–	–
O=C(NCc1ncccc1F)c1ncn(CCNCCc2nc3ccccc3[nH]2)n1 [Example 181]	135 nM	–	–	–	–
O=C(NCc1ncccc1F)c1cccc(CNCCc2nc3ccccc3[nH]2)c1 [Example 224]	140 nM	–	–	–	–
O=C(NCc1ccccn1)c1csc(CCNCc2nc3ccccc3[nH]2)n1 [Example 12]	80 nM	15%	20%	45%	–
O=C(NCc1ncccc1F)c1coc(CCNCCc2nc3c(F)cc(F)cc3[nH]2)n1 [Example 249]	40 nM	–	–	–	–
O=C(NCc1ncccc1F)c1csc(CCNCC(F)(F)c2nc3ccccc3[nH]2)n1 [Example 196]	1130 nM	–	–	–	–
